A short description of data set [1]: Part 3: randomized, double-blind, placebo-controlled multiple-dose trial of S- and R-bupropion with pharmacokinetic sampling (plasma concentrations Day 7). The class given is in vivo. The conditions noted are these: human, 105 mg BID SR tablets oral, fasting, Day 7 at 3-4 hours after dosing, n = 15. As for the experimental part: A randomized, double-blind, multiple-dose, placebo-controlled, parallel group trial was conducted to examine the safety and tolerability of the pure S-and R-enantiomers of bupropion, with pharmacokinetic sampling.

The nature of data set [2]: clinical. The conditions noted are these: human, in vivo, po, 105 mg.
Description: Tablet dosing was escalated from once daily for Days 1 to 3, to twice daily thereafter with a final morning dose on Day 8.

The structures appear in SMILES notation.

Turning to `C[C@@H](NC(C)(C)C)C(=O)c1cccc(Cl)c1` [R-bupropion, (R)-bupropion, reference compound], the “Mean concentration of bupropion” value in data set [1] is on record as 15.1 ng/mL.

As for `C[C@H](NC(C)(C)C)C(=O)c1cccc(Cl)c1` [S-bupropion, (S)-bupropion], in data set [1], the “Mean concentration of bupropion” value was 170.9 ng/mL. The same compound had an AUC(0-t) at 12 h in data set [2] of 793 ng·h/mL.

In general, AUC(0-t) refers to the area under the concentration-time curve up to a stated or last time point. Low readings indicate less exposure, high ones more exposure.

The values are drawn from patent publication US20250127732A1 (AXSOME THERAPEUTICS, INC., priority 2018, published 2025).
